Consider five molecules from patent US20040254238A1, “Bone growth stimulation with NO/statin and other NO modulating combinations” (OSTEOSCREEN, priority 2003, published 2004).

The test system of one experiment is osteoprogenitor cells. The settings on record: cells treated with dexamethasone in vitro; Cui et al. 1996; cited from earlier work.
Another experiment deals with bone resorption. The settings on record: lipid clearing agents; Wang et al. 1995; cited from earlier work.
A further experiment deals with three month old S-D rats. Kind of experiment: Bone mineral density in rats treated orally by gavage for 16 weeks. In kind it is in vivo, rat. The settings on record: oral gavage, S-D rats (FIG. 4 lower panel). As to the method: Statin equivalence: 100 mg/kg/day=0.72 mg/day; 400 mg/kg/day=2.9 mg/day; and 800 mg/kg/day=5.8 mg/day.
In this experiment, experimental groups of three month old S-D rats were used. Food was removed from the cages 6 hours prior to dosing. The animals were then treated orally by gavage once a day with vehicle (0.5% methylcellulose), lovastatin, or OsteoPure™ (lovastatin-containing reduced rice extract). OsteoPure™ was administered at 100, 400, or 800 mg/kg/day five days a week for 16 weeks. The statin equivalence in OsteoPure™ is 100 mg/kg/day=0.72 mg/day; 400 mg/kg/day=2.9 mg/day; and 800 mg/kg/day=5.8 mg/day. Rats were weighed weekly. Bone mineral density (BMD) were analyzed every four weeks. In the upper panel, the bone mineral densities (BMDs) are shown. In the lower panel, the % change in BMDs of the experimental over the 16 weeks is shown. […] This trend is confirmed in the long term analysis of percent change in BMDs shown in the lower panel.

Another experiment relates to bone mass. The settings on record: Horiuchi et al. 2001, Kinoshita et al. 2000; cited from earlier work.
The subject of a further experiment is neonatal murine calvaria. The settings on record: L-arginine alone, 20 μM.
Another experiment deals with rats. The settings on record: injected locally into the subcutaneous tissues of rats; Wozney 1992; cited from earlier work.

Procedure for neonatal murine calvaria: Selected compounds and appropriate controls were assayed in vitro (ex vivo) for bone formation activity (described above in “In Vitro Neonatal Mouse Calvaria Assay”). Histomorphometrical assessments of ex vivo calvaria were carried out using an OsteoMetrics bone morphometry measurement program, according to the manufacturer's instructions. Measurements were determined using either a 10- or 20-fold objective with a standard point counting eyepiece graticule.

Take `CC[C@H](C)C(=O)O[C@H]1C[C@@H](C)C=C2C=C[C@H](C)[C@H](CC[C@@H]3C[C@@H](O)CC(=O)O3)[C@H]21` [lovastatin]: in the experiment with osteoprogenitor cells, the “triglyceride vesicles in osteoprogenitor cells” value is reported as “diminished triglyceride vesicles”. The “bone resorption induced by steroid administration” value in the experiment on bone resorption is “inhibit bone resorption induced by steroid administration”. Also, in the experiment with three month old S-D rats, the “percent change in BMDs over 16 weeks, co-administered with L-arginine relative to the agent alone” value is reported as “greater increase in BMDs”.
As to `CC(=O)CCCCn1c(=O)c2c(ncn2C)n(C)c1=O` [pentoxifylline], in the experiment with bone mass, the bone mass entry is listed as “increase bone mass by promoting bone formation”.
Take `COc1ccc(C2CNC(=O)C2)cc1OC1CCCC1` (stereo not shown) [rolipram]: in the experiment with bone mass, the bone mass result was “increase bone mass by promoting bone formation”.
Consider `N=C(N)NCCC[C@H](N)C(=O)O` [L-arginine], for which, in the experiment with neonatal murine calvaria, the bone formation result is “induces bone formation”.

B1: BMP-4: recombinant bone morphogenic protein (protein, UniProt P12644 293-408, looked up)
Bone morphogenetic protein 4: SPKHHSQRARKKNKNCRRHSLYVDFSDVGWNDWIVAPPGYQAFYCHGDCPFPLADHLNSTNHAIVQTLVNSVNSSIPKACCVPTELSAISMLYLDEYDKVVLKNYQEMVVEGCGCR
Consider B1, for which the new bone formation result in the experiment on rats was “can induce new bone formation”.
